Measured values published in patent US20230085307A1, “PYRIDAZINONE COMPOUND AND HERBICIDE” (NISSAN CHEMICAL CORPORATION, priority 2019, published 2023).

Experiments:
barnyard grass [1] = assay: Test Example 4: herbicidal effect by soil treatment (Table 19, symbol H); assay type: in vivo, barnyard grass (Echinochloa crus-galli)
How it was run: (§1)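 Applied as a water-diluted emulsion, the compound was sprayed onto soil covering newly sown seeds. Evaluation came three weeks after application, in a greenhouse held at 25° C. to 30° C.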

oval-leafed pondweed [2] = assay: Test Example 1: herbicidal activity, application before weed generation under submerged conditions (Table 16, symbol C); assay type: in vivo, oval-leafed pondweed (Monochoria vaginalis); conditions: 320 g/ha applied herbicide
How it was run: (§2)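 Emulsion formulation, water-diluted to set dose, was put onto the flooded surface (4 cm depth, alluvial soil) the same day weeds were sown and 2.5-leaf rice transplanted. After 3 weeks at 25-30 °C under glass, each species was rated 0 (≤5% kill) to 5 (≥90% kill).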

redroot pigweed [3] = assay: Test Example 5: herbicidal effect by foliage application, plastic box (Table 20, symbol N); assay type: in vivo, redroot pigweed (Amaranthus retroflexus); conditions: foliage application
How it was run: (§3)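 Sow seeds spot-wise in sterilized diluvial soil; cover with ~1.5 cm soil. Grow 14 days in greenhouse, 25° C. to 30° C. Spray foliage with emulsion diluted to predetermined amount. Rate effect after 3 weeks.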

barnyard grass [4] = assay: Test Example 5: herbicidal effect by foliage application, plastic box (Table 20, symbol H); assay type: in vivo, barnyard grass (Echinochloa crus-galli); conditions: foliage application
How it was run: as §3

Japanese bulrush = assay: Test Example 1: herbicidal activity, application before weed generation under submerged conditions (Table 16, symbol B); assay type: in vivo, Japanese bulrush (Schoenoplectus juncoides); conditions: 320 g/ha applied herbicide
How it was run: as §2

chickweed [5] = assay: Test Example 5: herbicidal effect by foliage application, plastic box (Table 20, symbol P); assay type: in vivo, common chickweed (Stellaria media); conditions: foliage application
How it was run: as §3

wild oat [6] = assay: Test Example 5: herbicidal effect by foliage application, plastic box (Table 20, symbol I); assay type: in vivo, wild oat (Avena fatua); conditions: foliage application
How it was run: as §3

oval-leafed pondweed [7] = assay: Test Example 2: herbicidal activity, application during weed generation under submerged conditions (Table 17, symbol C); assay type: in vivo, oval-leafed pondweed (Monochoria vaginalis); conditions: AAH 320 g/ha; application during weed generation, submerged conditions
How it was run: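 Wagner pot, alluvial soil, 4 cm flood; mixed sowing of all species; greenhouse 25° C.–30° C. Emulsifiable formulation, water-diluted to predetermined dose, applied to paddy water at 1–2 leaf stage. Effect rated at 3 wk using the earlier test's scoring criteria.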

green foxtail [8] = assay: Test Example 5: herbicidal effect by foliage application, plastic box (Table 20, symbol G); assay type: in vivo, green foxtail (Setaria viridis); conditions: foliage application; for herbicidal effect on G: green foxtail: 320 g/ha
How it was run: as §3

green foxtail [9] = assay: Test Example 4: herbicidal effect by soil treatment (Table 19, symbol G); assay type: in vivo, green foxtail (Setaria viridis)
How it was run: as §1

rice flat sedge = assay: Test Example 3: herbicidal effect by foliage application, Wagner pot (Table 18, symbol E); assay type: in vivo, rice flat sedge (Cyperus iria); conditions: for herbicidal effect on E (rice flat sedge), rating 0-5: 320 g/ha; for herbicidal effect on E: rice flat sedge: amount of applied herbicide 320 g/ha
How it was run: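 Plants were sown in alluvial soil held under 0.1–0.5 cm standing water and grown 14 days in a greenhouse at 25–30 °C. An emulsifiable formulation, water-diluted to the set dose, was then sprayed onto the foliage, and effects were scored three weeks later using previously defined criteria.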

redroot pigweed [10] = assay: Test Example 4: herbicidal effect by soil treatment (Table 19, symbol N); assay type: in vivo, redroot pigweed (Amaranthus retroflexus)
How it was run: as §1

velvetleaf = assay: Test Example 5: herbicidal effect by foliage application, plastic box (Table 20, symbol M); assay type: in vivo, velvetleaf (Abutilon theophrasti); conditions: foliage application
How it was run: as §3

chickweed [11] = assay: Test Example 4: herbicidal effect by soil treatment (Table 19, symbol P); assay type: in vivo, common chickweed (Stellaria media)
How it was run: as §1

blackgrass = assay: Test Example 5: herbicidal effect by foliage application, plastic box (Table 20, symbol J); assay type: in vivo, blackgrass (Alopecurus myosuroides); conditions: foliage application
How it was run: as §3

wild oat [12] = assay: Test Example 4: herbicidal effect by soil treatment (Table 19, symbol I); assay type: in vivo, wild oat (Avena fatua)
How it was run: as §1

[13] = 320 g/ha, evaluated three weeks after application
[14] = evaluated three weeks after application
[15] = amount of applied herbicide 320 g/ha
[16] = AAH 320 g/ha, evaluated three weeks after application
[17] = AAH 320 g/ha, three weeks after application

Structure (SMILES) | Herbicidal effect on C: oval-leafed pondweed (grade 0-5) (oval-leafed pondweed [2]) | herbicidal effect on N: redroot pigweed (redroot pigweed [3]; [13]) | herbicidal effect on H: barnyard grass (barnyard grass [4]; [13]) | Herbicidal effect on B: Japanese bulrush (grade 0-5) (Japanese bulrush) | herbicidal effect on P: chickweed (chickweed [5]; [13]) | herbicidal effect on I: wild oat (wild oat [6]; [13]) | herbicidal effect rating, C: oval-leafed pondweed (oval-leafed pondweed [7]) | herbicidal effect on G: green foxtail (green foxtail [8]; [14]) | herbicidal effect on E (rice flat sedge), rating 0-5 (rice flat sedge) | herbicidal effect on M: velvetleaf (velvetleaf; [13]) | herbicidal effect on J: blackgrass (blackgrass; [13]) | herbicidal effect on H: barnyard grass (barnyard grass [1]; [15]) | herbicidal effect on G: green foxtail (green foxtail [9]; [15]) | herbicidal effect on E: rice flat sedge (rice flat sedge) | herbicidal effect on N: redroot pigweed (redroot pigweed [10]; [15]) | herbicidal effect on P: chickweed (chickweed [11]; [15]) | herbicidal effect on I: wild oat (wild oat [12]; [15]) | other results
Cc1nn(C)c(=O)c(-c2c(-c3ccc(OCc4ccccc4)cc3)sc3ccc(F)cc23)c1O [2-062] | 3 (Herbicidal rate of 40% or more and less than 70%) | 5 (Herbicidal rate of 90% or more (almost completely withered)) | 5 (Herbicidal rate of 90% or more (almost completely withered)) | 4 (Herbicidal rate of 70% or more and less than 90%) | 5 (Herbicidal rate of 90% or more (almost completely withered)) | 0 (Herbicidal rate of 5% or less (almost no effect)) | 2 (Herbicidal rate of 20% or more and less than 40%) | 5 (Herbicidal rate of 90% or more (almost completely withered)) | 5 (Herbicidal rate of 90% or more (almost completely withered)) | 3 (Herbicidal rate of 40% or more and less than 70%) | 1 (Herbicidal rate of 5% or more and less than 20%) |  |  |  |  |  |  | herbicidal effect rating, H: barnyard grass (barnyard grass [1]; 320 g/ha): 0 (Herbicidal rate of 5% or less (almost no effect)); herbicidal effect rating, G: green foxtail (green foxtail [9]; 320 g/ha): 3 (Herbicidal rate of 40% or more and less than 70%); herbicidal effect rating, N: redroot pigweed (redroot pigweed [10]; 320 g/ha): 4 (Herbicidal rate of 70% or more and less than 90%); herbicidal effect rating, P: chickweed (chickweed [11]; 320 g/ha): 0 (Herbicidal rate of 5% or less (almost no effect)); herbicidal effect rating, I: wild oat (wild oat [12]; 320 g/ha): 0 (Herbicidal rate of 5% or less (almost no effect))
CCCC(=O)Oc1c(C)nn(C)c(=O)c1-c1c(-c2ccc(Cl)cc2)sc2ccc(Cl)cc12 [2-100] | 2 (Herbicidal rate of 20% or more and less than 40%) | 5 (Herbicidal rate of 90% or more (almost completely withered)) | 5 (Herbicidal rate of 90% or more (almost completely withered)) | 3 (Herbicidal rate of 40% or more and less than 70%) | 5 (Herbicidal rate of 90% or more (almost completely withered)) | 5 (Herbicidal rate of 90% or more (almost completely withered)) | 0 (Herbicidal rate of 5% or less (almost no effect)) | 4 (Herbicidal rate of 70% or more and less than 90%) | 3 (Herbicidal rate of 40% or more and less than 70%) | 5 (Herbicidal rate of 90% or more (almost completely withered)) | 4 (Herbicidal rate of 70% or more and less than 90%) |  |  |  |  |  |  | H: barnyard grass, herbicidal effect rating (barnyard grass [1]; [15]): 0 (Herbicidal rate of 5% or less (almost no effect)); G: green foxtail, herbicidal effect rating (green foxtail [9]; [15]): 0 (Herbicidal rate of 5% or less (almost no effect)); N: redroot pigweed, herbicidal effect rating (redroot pigweed [10]; [15]): 4 (Herbicidal rate of 70% or more and less than 90%); P: chickweed, herbicidal effect rating (chickweed [11]; [15]): 1 (Herbicidal rate of 5% or more and less than 20%); I: wild oat, herbicidal effect rating (wild oat [12]; [15]): 0 (Herbicidal rate of 5% or less (almost no effect))
CCCC(=O)Oc1c(C)nn(C)c(=O)c1-c1c(-c2ccc(SC3CC3)cc2)sc2ccc(F)cc12 [2-255] | 3 (Herbicidal rate of 40% or more and less than 70%) |  |  | 3 (Herbicidal rate of 40% or more and less than 70%) |  |  | 2 (Herbicidal rate of 20% or more and less than 40%) |  |  |  |  | 0 (Herbicidal rate of 5% or less (almost no effect)) | 1 (Herbicidal rate of 5% or more and less than 20%) | 5 (Herbicidal rate of 90% or more (almost completely withered)) | 4 (Herbicidal rate of 70% or more and less than 90%) | 4 (Herbicidal rate of 70% or more and less than 90%) | 0 (Herbicidal rate of 5% or less (almost no effect)) | N: redroot pigweed, herbicidal effect (criteria 0-5) (redroot pigweed [3]; [16]): 5 (Herbicidal rate of 90% or more (almost completely withered)); H: barnyard grass, herbicidal effect (criteria 0-5) (barnyard grass [4]; [16]): 5 (Herbicidal rate of 90% or more (almost completely withered)); P: chickweed, herbicidal effect (criteria 0-5) (chickweed [5]; [16]): 5 (Herbicidal rate of 90% or more (almost completely withered)); I: wild oat, herbicidal effect (criteria 0-5) (wild oat [6]; [16]): 5 (Herbicidal rate of 90% or more (almost completely withered)); G: green foxtail, herbicidal effect (criteria 0-5) (green foxtail [8]; [16]): 5 (Herbicidal rate of 90% or more (almost completely withered)); M: velvetleaf, herbicidal effect (criteria 0-5) (velvetleaf; [16]): 5 (Herbicidal rate of 90% or more (almost completely withered)); J: blackgrass, herbicidal effect (criteria 0-5) (blackgrass; [16]): 5 (Herbicidal rate of 90% or more (almost completely withered))
CCCCCOc1cccc(-c2sc3ccc(F)cc3c2-c2c(O)c(C)nn(C)c2=O)c1 [2-225] | 3 (Herbicidal rate of 40% or more and less than 70%) |  |  | 3 (Herbicidal rate of 40% or more and less than 70%) |  |  | 0 (Herbicidal rate of 5% or less (almost no effect)) |  |  |  |  | 0 (Herbicidal rate of 5% or less (almost no effect)) | 0 (Herbicidal rate of 5% or less (almost no effect)) | 4 (Herbicidal rate of 70% or more and less than 90%) | 5 (Herbicidal rate of 90% or more (almost completely withered)) | 0 (Herbicidal rate of 5% or less (almost no effect)) | 0 (Herbicidal rate of 5% or less (almost no effect)) | herbicidal effect on N: redroot pigweed (criteria 0-5) (redroot pigweed [3]; [13]): 5 (Herbicidal rate of 90% or more (almost completely withered)); herbicidal effect on H: barnyard grass (criteria 0-5) (barnyard grass [4]; [13]): 3 (Herbicidal rate of 40% or more and less than 70%); herbicidal effect on P: chickweed (criteria 0-5) (chickweed [5]; [13]): 5 (Herbicidal rate of 90% or more (almost completely withered)); herbicidal effect on I: wild oat (criteria 0-5) (wild oat [6]; [13]): 0 (Herbicidal rate of 5% or less (almost no effect)); herbicidal effect on M: velvetleaf (criteria 0-5) (velvetleaf; [13]): 5 (Herbicidal rate of 90% or more (almost completely withered)); herbicidal effect on J: blackgrass (criteria 0-5) (blackgrass; [13]): 0 (Herbicidal rate of 5% or less (almost no effect))
Cc1nn(C)c(=O)c(-c2c(-c3ccc4c(c3)OCCO4)sc3ccccc23)c1O [1-089] | 4 (Herbicidal rate of 70% or more and less than 90%) |  |  | 4 (Herbicidal rate of 70% or more and less than 90%) |  |  | 1 (Herbicidal rate of 5% or more and less than 20%) |  | 5 (Herbicidal rate of 90% or more (almost completely withered)) |  |  |  |  |  |  |  |  | herbicidal effect rating, H: barnyard grass (barnyard grass [1]; [15]): 5 (Herbicidal rate of 90% or more (almost completely withered)); N: redroot pigweed, herbicidal effect (redroot pigweed [3]; [17]): 1 (Herbicidal rate of 5% or more and less than 20%); H: barnyard grass, herbicidal effect (barnyard grass [4]; [17]): 5 (Herbicidal rate of 90% or more (almost completely withered)); P: chickweed, herbicidal effect (chickweed [5]; [17]): 5 (Herbicidal rate of 90% or more (almost completely withered)); I: wild oat, herbicidal effect (wild oat [6]; [17]): 0 (Herbicidal rate of 5% or less (almost no effect)); G: green foxtail, herbicidal effect (green foxtail [8]; [17]): 5 (Herbicidal rate of 90% or more (almost completely withered)); herbicidal effect rating, G: green foxtail (green foxtail [9]; [15]): 5 (Herbicidal rate of 90% or more (almost completely withered)); herbicidal effect rating, N: redroot pigweed (redroot pigweed [10]; [15]): 4 (Herbicidal rate of 70% or more and less than 90%); M: velvetleaf, herbicidal effect (velvetleaf; [17]): 5 (Herbicidal rate of 90% or more (almost completely withered)); J: blackgrass, herbicidal effect (blackgrass; [17]): 0 (Herbicidal rate of 5% or less (almost no effect)); herbicidal effect rating, I: wild oat (wild oat [12]; [15]): 0 (Herbicidal rate of 5% or less (almost no effect))
